≈ marks a conversion by molar mass, not a printed value. Read-outs that look alike come from different tables or passages of the source.
Key:
[1] = tested on: Micrococcus luteus PCI-1001; experiment: microbe, parasite or virus in culture; type: cell-based
[2] = tested on: Bacteriodes fragilis A22695; type: cell-based
[3] = tested on: Bacteriodes fragilis A22534; type: cell-based
[4] = tested on: Bacteriodes fragilis A22533; type: cell-based
[5] = tested on: Bacillus subtilis PCI-219; experiment: microbe, parasite or virus in culture; type: cell-based
[6] = tested on: Bacteriodes fragilis CUH-108; type: cell-based
[7] = tested on: Staphylococcus aureus A15097; type: cell-based
[8] = tested on: Propionibacterium acnes A21933; type: cell-based; conditions: Cutibacterium acnes
[9] = tested on: Strpetococcus faecalis A9612; type: cell-based
[10] = tested on: Pseudomonas aeruginosa A9930; type: cell-based
[11] = tested on: Peptostreptococcus anaerobius A21905; type: cell-based
Proteus vulgaris A9436 = type: cell-based
Escherichia coli NIHJ = type: cell-based
P388 leukemia = type: in vivo, mice (male BDF1 strain); conditions: for T/C % of MST: ip, once daily for 9 days
[12] = tested on: Morganella morganii A9553; type: cell-based
[13] = tested on: Serratia marcescens A20222; experiment: microbe, parasite or virus in culture; type: cell-based
[14] = tested on: Klebsiella pnuemonia D-11; type: cell-based; conditions: D11
[15] = tested on: Bacteriodes fragilis A22053; type: cell-based
Proteus mirabilis A9554 = type: cell-based
[16] = tested on: Staphylococcus aureus BX-1633; type: cell-based
[17] = tested on: Staphylococcus epidermidis D153; type: cell-based
[18] = tested on: Enterobacter cloacae A9659; experiment: microbe, parasite or virus in culture; type: cell-based
[19] = tested on: various gram-positive and anaerobic bacteria; type: cell-based
[20] = tested on: aerobic gram-negative organisms; type: cell-based
[21] = tested on: Bacteriodes fragilis A22021; type: cell-based
[22] = tested on: Staphylococcus aureus A20239; type: cell-based
[23] = tested on: Staphylococcus aureus 52-34; type: cell-based; conditions: 5234
anaerobic bacteria = type: cell-based
L1210 leukemia = experiment: Antitumor activity in mice, L1210 leukemia; type: in vivo, mice (male BDF1 strain); conditions: ip; for T/C % of MST: once daily for 9 days
[24] = tested on: aerobic gram-positive bacteria; type: cell-based
[25] = tested on: Clostridium perfringens A22787; experiment: microbe, parasite or virus in culture; type: cell-based
[26] = tested on: Staphylococcus aureus D136; type: cell-based
B16 melanoma = experiment: Antitumor activity in mice, B16 melanoma; type: in vivo, mice (male BDF1 strain); conditions: ip; for T/C % of MST: once daily for 9 days
[27] = tested on: Bacteriodes fragilis A22693; type: cell-based; conditions: GAM agar, 10^7-10^8 inoculum
[28] = tested on: Clostridium difficile A21675; type: cell-based; conditions: Clostridioides difficile, GAM agar, 10^7-10^8 inoculum
[29] = tested on: Staphylococcus epidermidis A22152; type: cell-based
[30] = Bacteriodes fragilis A22695, GAM agar, 10^7-10^8 inoculum, read-out: MIC
[31] = Bacteriodes fragilis A22533, GAM agar, 10^7-10^8 inoculum, read-out: MIC
[32] = Bacteriodes fragilis CUH-108, GAM agar, 10^7-10^8 inoculum, read-out: MIC

With `CC1(C)S[C@@H]2[C@H](NC(=O)[C@H](N)c3ccccc3)C(=O)N2[C@H]1C(=O)O` [Ampicillin, reference compound] the MIC ([1]; PCI1001, read-out: MIC) was less than 0.0063 µg/mL, the MIC [2, 30] was greater than 100 µg/mL and the MIC ([3]; Bacteriodes fragilis A22534, GAM agar, 10^7-10^8 inoculum, read-out: MIC) was greater than 100 µg/mL. It also gave an MIC [4, 31] greater than 100 µg/mL, an MIC ([5]; PCI219) of 0.025 µg/mL (≈ 0.0715 µM) and an MIC [6, 32] of 50 µg/mL (≈ 143 µM).
`COc1cccc2c1N[C@H](O)[C@@H]1CC(/C=C/C(=O)N(C)C)=CN1C2=O` [BMY-28121 A] gave an MIC [7] of 12.5 µg/mL (≈ 36.4 µM), an MIC ([1]; PCI1001) of 12.5 µg/mL (≈ 36.4 µM) and an MIC ([8]; read-out: MIC) of 0.4 µg/mL (≈ 1.16 µM). It also gave an MIC [9] of 12.5 µg/mL (≈ 36.4 µM), an MIC [10] greater than 50 µg/mL and an MIC ([11]; read-out: MIC) of 0.4 µg/mL (≈ 1.16 µM). The MIC (Proteus vulgaris A9436) was greater than 50 µg/mL, the MIC (Escherichia coli NIHJ) was 50 µg/mL (≈ 146 µM) and the “antitumor activity against experimental tumors in mice” value (P388 leukemia; mouse, in vivo) was “marked antitumor activity”. For the same compound, the “times more active than mitomycin C in terms of minimum effective dose” value (P388 leukemia; mouse, in vivo) was “approximately 4 times”, the MIC [12] was greater than 50 µg/mL and the MIC [13] was greater than 50 µg/mL. It also gave an MIC [14] greater than 50 µg/mL, an MIC ([15]; read-out: MIC) of 0.8 µg/mL (≈ 2.33 µM) and an MIC (Proteus mirabilis A9554) greater than 50 µg/mL. The MIC ([16]; BX1633) was 12.5 µg/mL (≈ 36.4 µM), the MIC [17] was 3.1 µg/mL (≈ 9.03 µM) and the MIC [18] was greater than 50 µg/mL. The antibacterial activity [19] was “possess antibacterial activity”, the MIC ([6]; read-out: MIC) was 0.8 µg/mL (≈ 2.33 µM) and the “in vitro activity against aerobic gram-negative organisms” value [20] was “did not show any in vitro activity”. For the same compound, the MIC ([21]; read-out: MIC) was 0.8 µg/mL (≈ 2.33 µM), the MIC [22] was 12.5 µg/mL (≈ 36.4 µM) and the MIC [23] was 3.1 µg/mL (≈ 9.03 µM).
`COc1cccc2c1N[C@H](OC)[C@@H]1CC(/C=C/C(=O)N(C)C)=CN1C2=O` [BMY-28121 B, 1,10,11,11a-tetrahydro-9,11-dimethoxy-5H-pyrrolo-[2,1-c][1,4]benzodiazepine-5-one-2-N,N-dimethylacrylamide] gave an MIC [7] of 6.3 µg/mL (≈ 17.6 µM), an MIC ([1]; PCI1001) of 12.5 µg/mL (≈ 35 µM) and an MIC [8] of 0.4 µg/mL (≈ 1.12 µM). The MIC [9] was 6.3 µg/mL (≈ 17.6 µM), the MIC [10] was greater than 50 µg/mL and the MIC [2] was 0.4 µg/mL (≈ 1.12 µM). It also gave an MIC [3] of 0.4 µg/mL (≈ 1.12 µM), an MIC [11] of 0.2 µg/mL (≈ 0.56 µM) and an MIC (Proteus vulgaris A9436) greater than 50 µg/mL. For the same compound, the MIC (Escherichia coli NIHJ) was greater than 50 µg/mL, the solubility (in ethyl acetate and ethyl ether) was “slightly soluble” and the solubility (in methanol, ethanol, chloroform, pyridine, and dimethylformamide) was “readily soluble”. The solubility (in n-hexane and water) was “practically insoluble”, the “T/C % of MST” value (P388 leukemia; 0.008 mg/kg/day, P388 leukemia) was 120% and the “T/C % of MST” value (P388 leukemia; 0.13 mg/kg/day, P388 leukemia) was 200%. The “T/C % of MST” value (P388 leukemia; 0.25 mg/kg/day, P388 leukemia) was 210%, the “times more active than mitomycin C in terms of minimum effective dose” value (P388 leukemia; P388 leukemia, vs mitomycin C) was “approximately 4 times” and the “antitumor activity against experimental tumors in mice” value (P388 leukemia; eg. P388 leukemia in mice) was “marked antitumor activity”. The MIC [12] was greater than 50 µg/mL, the MIC [13] was greater than 50 µg/mL and the “inhibition of anaerobic bacteria” value (anaerobic bacteria) was “inhibited all of the gram-positive and negative organisms”. The “T/C % of MST” value (L1210 leukemia; 0.13 mg/kg/day) was 129%, the “T/C % of MST” value (L1210 leukemia; 0.25 mg/kg/day) was 129% and the “therapeutic activity against L1210 leukemia” value (L1210 leukemia) was “potent therapeutic activity”. The MIC [14] was greater than 50 µg/mL, the MIC [15] was 0.4 µg/mL (≈ 1.12 µM) and the MIC [4] was 0.8 µg/mL (≈ 2.24 µM). For the same compound, the MIC (Proteus mirabilis A9554) was greater than 50 µg/mL, the MIC ([16]; BX1633) was 6.3 µg/mL (≈ 17.6 µM) and the “susceptibility of aerobic gram-positive bacteria” value [24] was “moderately susceptible”. The MIC [18] was greater than 50 µg/mL, the antibacterial activity [19] was “possess antibacterial activity” and the MIC [25] was 0.4 µg/mL (≈ 1.12 µM). For the same compound, the MIC [6] was 0.4 µg/mL (≈ 1.12 µM), the MIC [26] was 6.3 µg/mL (≈ 17.6 µM) and the “in vitro activity against aerobic gram-negative organisms” value [20] was “did not show any in vitro activity”. For the same compound, the “T/C % of MST” value (B16 melanoma; 0.13 mg/kg/day) was 113%, the “T/C % of MST” value (B16 melanoma; 0.25 mg/kg/day) was 131% and the “activity against B16 melanoma” value (B16 melanoma) was “marginally active”. For the same compound, the MIC [21] was 0.2 µg/mL (≈ 0.56 µM) and the MIC [22] was 6.3 µg/mL (≈ 17.6 µM).
Compound `CCC[C@@H]1C[C@@H](C(=O)N[C@@H]([C@H]2O[C@H](SC)[C@H](O)[C@@H](O)[C@H]2O)[C@H](C)Cl)N(C)C1` [Clindamycin] has an MIC [2, 30] of 0.1 µg/mL (≈ 0.235 µM), an MIC ([15]; Bacteriodes fragilis A22053, GAM agar, 10^7-10^8 inoculum, read-out: MIC) of 0.2 µg/mL (≈ 0.471 µM) and an MIC [4, 31] of 0.1 µg/mL (≈ 0.235 µM). For the same compound, the MIC [27] was 0.1 µg/mL (≈ 0.235 µM), the MIC [6, 32] was 100 µg/mL (≈ 235 µM) and the MIC ([21]; Bacteriodes fragilis A22021, GAM agar, 10^7-10^8 inoculum, read-out: MIC) was 0.1 µg/mL (≈ 0.235 µM). For the same compound, the MIC [28] was 50 µg/mL (≈ 118 µM).
Work on `NC[C@H]1O[C@H](O[C@H]2[C@H](O)[C@@H](O[C@H]3O[C@H](CO)[C@@H](O)[C@H](N)[C@H]3O)[C@H](N)C[C@@H]2N)[C@H](O)[C@@H](O)[C@@H]1O` [Kanamycin, reference compound] yielded an MIC ([7]; read-out: MIC) of 0.8 µg/mL (≈ 1.65 µM), an MIC ([1]; PCI1001) of 6.3 µg/mL (≈ 13 µM) and an MIC [9] of 25 µg/mL (≈ 51.6 µM). For the same compound, the MIC [10] was 6.3 µg/mL (≈ 13 µM), the MIC (Proteus vulgaris A9436; read-out: MIC) was 0.8 µg/mL (≈ 1.65 µM) and the MIC (Escherichia coli NIHJ; read-out: MIC) was 1.6 µg/mL (≈ 3.3 µM). It also gave an MIC [12] of 6.3 µg/mL (≈ 13 µM), an MIC ([13]; read-out: MIC) of 3.1 µg/mL (≈ 6.4 µM) and an MIC [14] of 0.4 µg/mL (≈ 0.826 µM). It also gave an MIC (Proteus mirabilis A9554) of 6.3 µg/mL (≈ 13 µM), an MIC ([16]; BX1633, read-out: MIC) of 0.8 µg/mL (≈ 1.65 µM) and an MIC ([5]; PCI219, read-out: MIC) of 0.2 µg/mL (≈ 0.413 µM). It also gave an MIC [29] of 25 µg/mL (≈ 51.6 µM), an MIC [17] of 0.8 µg/mL (≈ 1.65 µM) and an MIC ([18]; read-out: MIC) of 3.1 µg/mL (≈ 6.4 µM). The MIC ([26]; read-out: MIC) was 0.8 µg/mL (≈ 1.65 µM), the MIC [22] was 100 µg/mL (≈ 206 µM) and the MIC [23] was 0.8 µg/mL (≈ 1.65 µM).
For `CO[C@@]12[C@H](COC(N)=O)C3=C(C(=O)C(C)=C(N)C3=O)N1C[C@@H]1N[C@@H]12` [Mitomycin C, reference compound], the “T/C % of MST” value (P388 leukemia; 0.13 mg/kg/day, P388 leukemia) was 150%, the “T/C % of MST” value (P388 leukemia; 0.25 mg/kg/day, P388 leukemia) was 180% and the “T/C % of MST” value (P388 leukemia; 0.5 mg/kg/day, P388 leukemia) was 240%. The “T/C % of MST” value (P388 leukemia; 1 mg/kg/day, P388 leukemia) was 450%, the “T/C % of MST” value (L1210 leukemia; 0.13 mg/kg/day) was 129% and the “T/C % of MST” value (L1210 leukemia; 0.25 mg/kg/day) was 129%. For the same compound, the “T/C % of MST” value (L1210 leukemia; 0.5 mg/kg/day) was 141%, the “T/C % of MST” value (L1210 leukemia; 1 mg/kg/day) was 141% and the “T/C % of MST” value (B16 melanoma; 0.5 mg/kg/day) was 164%. For the same compound, the “T/C % of MST” value (B16 melanoma; 1 mg/kg/day) was 191%.

From patent US4935362A, “BMY-28121, a new antitumor antibiotic” (Bristol-Myers Company, priority 1987, dated 1990)
